In PubChem BioAssay (NCI):
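These data come from cells grown in 96-well plates and exposed to compound for 48 hours at five concentrations. TGI: total growth inhibition.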

Legend:
Test in all cases: NCI anticancer screen, dose series, 48 h
MDA-N = test system: MDA-N
CAKI-1 renal = test system: CAKI-1 renal
CCRF-CEM leukemia = test system: CCRF-CEM leukemia
SNB-75 CNS = test system: SNB-75 CNS
UACC-257 melanoma = test system: UACC-257 melanoma
SK-MEL-2 melanoma = test system: SK-MEL-2 melanoma
SK-OV-3 ovarian = test system: SK-OV-3 ovarian
HS 578T breast = test system: HS 578T breast
A498 renal = test system: A498 renal
MOLT-4 leukemia = test system: MOLT-4 leukemia

Structure (SMILES)	TGI (MDA-N) [µM]	TGI (CAKI-1 renal) [µM]	TGI (CCRF-CEM leukemia) [µM]	TGI (SNB-75 CNS) [µM]	TGI (UACC-257 melanoma) [µM]	TGI (SK-MEL-2 melanoma) [µM]	TGI (SK-OV-3 ovarian) [µM]	TGI (HS 578T breast) [µM]	TGI (A498 renal) [µM]	TGI (MOLT-4 leukemia) [µM]
CC(=O)Oc1ccc(/C=C/C(=O)O[C@@H](C(=O)O)[C@@H](OC(=O)/C=C/c2ccc(OC(C)=O)c(OC(C)=O)c2)C(=O)O)cc1OC(C)=O	> 100	> 100	> 100	> 100	> 100	> 100	> 100	> 100	> 100	
NC(Cc1ccc(S(=O)(=O)O)cc1)C(=O)NC(Cc1ccc(S(=O)(=O)O)cc1)C(=O)O (stereo unspecified)	> 100	> 100	> 100	> 100	> 100	> 100		> 100	> 100	> 100
O=C1c2cn[nH]c2C(c2ccccc2)N1c1ccccc1 (stereo unspecified)	> 10	> 10	> 10	> 10	> 10	> 10	> 10	> 10	> 10	> 10
C[C@@H]1S[C@H](c2c(Cl)cccc2Cl)N2Cc3ccccc3N=C12	> 100	> 100	> 100	> 100	> 100	> 100	> 100	> 100	> 100	> 100
N#C[C@H](c1nc2ccccc2s1)c1nc2ccccc2nc1Cl	> 100	> 100	> 100	> 100	43.3	> 100	73	> 100	> 100	> 100
COc1ccc(C(C2=C(O)COC2=O)c2cc3c(cc2O)OCO3)cc1OC (stereo unspecified)	> 100	> 100	> 100	> 100	> 100	> 100	> 100	> 100	> 100	> 100
C[N+]1(CCN[N+]2(C)CCCCC2)CCc2ccccc2C1 (stereo unspecified)	> 100	> 100	> 100	> 100	> 100	> 100	> 100	> 100	> 100	> 100
S=C(Nc1ccc2cn[nH]c2c1)Nc1ccc2cn[nH]c2c1	> 100	> 100		> 100	> 100	> 100	> 100	> 100	> 100	
CSC1NC(c2ccc(Cl)cc2)=C(C#N)C(=O)N1C1OCC(OC(C)=O)C(OC(C)=O)C1OC(C)=O (stereo unspecified)	> 100	> 100		> 100	> 100		> 100	> 100	> 100	> 100
C[Si](C)(C)C1=C([Si](C)(C)C)C(Cl)(Cl)C1=O	5.39	7.14	1.42	24.9	6.95	34.6	49.3	55.7	29.8	3.45
O=C(CCc1ccccc1)On1c(-c2ccccc2)nc2ccccc2c1=S	> 100	> 100	> 100	> 100	> 100	37.5	> 100	> 100	> 100	23.3
O=[N+]([O-])c1ccc(O)c(/C=N/NC(=S)N2CCCCC2)c1	60.1	34.4	> 82	33.1	14.1	50.4	> 56.6	> 60	> 44.2	> 44.4
COc1ccc(/C=C/C2=NN(c3cccc(S(=O)(=O)O)c3)C3(C2)SCC(=O)N3c2nc3ccccc3s2)cc1 (stereo unspecified)	> 100	> 100	77.5	> 100	> 100	> 100		> 100	> 100	> 100
COc1ccc(/C=N/n2cnc3[nH]c(C)c(Cc4ccccc4)c3c2=N)cc1	> 100	> 100	> 100	> 100	> 100	> 100	> 100	> 100	> 100	> 100
Cn1c(N/N=C/c2ccccc2)nc(-c2ccc([N+](=O)[O-])cc2)c(C#N)c1=O	> 100	> 100	> 100	> 100	> 100	> 100	> 100	> 100	> 100	> 100
O=c1[nH]cnc2c1nnn2CCCCCCCCCCCCn1nnc2c(=O)[nH]cnc21	> 100	> 100	> 100	> 57.2	> 100	51	38.5	60.7	53.6	> 100
COc1ccccc1C[C@@H]1OC2(C=CC(=O)C=C2)O[C@H]1Cc1ccccc1OC	21.7	29.7	8.6	17.6	16.1	18.4	24.5	29.3	49.9	> 50
COc1cc(C2c3cc4c(cc3OC(NCCO)C2C)OCO4)cc(OC)c1OC (stereo unspecified)	0.5	> 54.3		> 71.7	> 100	> 100	> 100	> 100	2.81	26.3
COc1cc(N(Cc2ccc3oc(=O)c(-c4ccccc4)nc3c2)Cc2ccc3oc(=O)c(-c4ccccc4)nc3c2)cc(OC)c1OC	> 10	> 10	> 10	> 10	> 10	> 10	> 10	> 10		> 10
C[C@H]1S[C@H](c2c(Cl)cccc2Cl)N2Cc3ccccc3N=C12	> 100	> 100	> 100	32.4	45.6	26.1	38.3	42.3	66	> 100
